Assay results as given in PMC2576538 (The Journal of Biological Chemistry, 2008).
Ends that are not written are not given here. * marks the point of attachment. Biotin = O=C1N[C@H]2[C@H](CS[C@H]2CCCCC(=O)*)N1

T1: GST-claudin-4, full length (mouse, UniProt O35054 1-210)
T1 sequence: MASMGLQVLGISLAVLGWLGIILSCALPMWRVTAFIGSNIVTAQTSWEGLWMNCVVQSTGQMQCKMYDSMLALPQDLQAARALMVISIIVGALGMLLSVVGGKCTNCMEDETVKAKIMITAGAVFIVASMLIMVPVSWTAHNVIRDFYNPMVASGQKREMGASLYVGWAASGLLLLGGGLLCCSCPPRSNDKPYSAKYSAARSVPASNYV


What was measured:
Cpe30 peptide = assay type: binding, Clostridium perfringens
[1] = biological target: Biotin-Cpe30 (Clostridium perfringens) (UniProt P01558); assay: SPR
[2] = biological target: Cpe17 (last C-terminal 17 amino acids of Cpe), biotinylated (Clostridium perfringens) (UniProt P01558); assay: SPR
[3] = biological target: T1, GST-claudin-4, full length; assay: SPR

| Molecule | Binding of immobilized Ecl2 peptide to Cpe30, in words (Cpe30 peptide) | other results |
| --- | --- | --- |
| AHNVIRDFYNPMVASGQKREMGASL [B-Ecl2-B] | does not bind | – |
| AHNVIRDFYNPMVASGQKREMGASL (disulfide (positions not given here)) [B-lariat-Ecl2] | does not bind | – |
| GST-Cldn-4.R4 (GST fused to claudin-4 from Ecl2 through the C terminus) (domain or fragment) | – | Kd [1]: 2.56 nM; Kd [2]: 1.57 nM |
| (138)AHNVIRDFYNPM VASGQKREMGASL(160) [B-Ecl2] | does not bind | – |
| Biotin-SLDAGQYVLVMKANSSYSGNYPYSILFQKF [Biotin-Cpe30] | – | binding result [3]: binds |
